Among the data in patent US10851073B2, “Protein tyrosine phosphatase inhibitors and methods of use thereof” (Calico Life Sciences LLC, priority 2019, dated 2020) are IC50 values, retold here.

Broadly, the IC50 is the concentration at which inhibition is half-maximal.

Test [1] relates to B16F10 mouse melanoma cells. The test can be described thus: B16F10 IFNγ-induced cellular growth inhibition assay. The format is cell-based. The settings on record: B16-F10, with 0.5 ng/mL IFNγ, read-out: B16F10 GI IC50. In a few lines:
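B16F10 cells grown in DMEM+10% FBS, with or without 0.5 ng/mL final mouse IFNγ, and dosed in triplicate at 100 μM to 0.001 μM final (0.1% DMSO). Confluence imaged every 6 h for 5 days; percent growth inhibition versus DMSO/with-IFNγ control taken once DMSO/no-IFNγ wells exceeded 95% confluence, giving IC50.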

Test [2] deals with T1, His tagged PTPN2 (TC45) protein (Homo sapiens, UniProt P17706).
T1 construct: made in house
T1 sequence (P17706 with tags, fused parts or gaps isoform P17706-2): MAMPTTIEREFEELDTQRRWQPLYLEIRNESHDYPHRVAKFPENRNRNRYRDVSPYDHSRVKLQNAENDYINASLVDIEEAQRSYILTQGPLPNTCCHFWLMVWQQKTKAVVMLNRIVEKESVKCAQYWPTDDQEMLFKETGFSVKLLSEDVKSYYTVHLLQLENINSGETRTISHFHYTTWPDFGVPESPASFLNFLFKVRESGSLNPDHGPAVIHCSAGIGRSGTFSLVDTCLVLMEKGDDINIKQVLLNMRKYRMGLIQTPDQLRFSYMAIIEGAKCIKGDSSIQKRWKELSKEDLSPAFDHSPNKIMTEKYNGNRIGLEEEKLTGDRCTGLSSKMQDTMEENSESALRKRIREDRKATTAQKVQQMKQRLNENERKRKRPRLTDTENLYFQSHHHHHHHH
The test can be described thus: Mobility shift assay used to determine potency of PTPN2 inhibitors. The format is biochemical. To be noted: enzyme 0.5 nM, substrate 2 μM; read-out: PTPN2 MSA IC50. The essentials: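 Enzyme (0.5 nM) preincubated with compound (12-point, 1:3 dilution) 10 min at room temperature in 50 mM HEPES pH 7.5, 1 mM EGTA, 10 mM EDTA, 0.01% Tween 20, 2 mM DTT; OG488-labelled phospho-insulin-receptor peptide substrate (2 μM) added for 10 min, then quenched. Microfluidic mobility shift (ex 488/em 530 nm) gave % conversion; IC50 from % inhibition.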

Test [3] addresses T2, His tagged full-length PTPN1 protein (Homo sapiens, UniProt P18031).
T2 construct: made in house
T2 sequence (P18031 with tags, fused parts or gaps): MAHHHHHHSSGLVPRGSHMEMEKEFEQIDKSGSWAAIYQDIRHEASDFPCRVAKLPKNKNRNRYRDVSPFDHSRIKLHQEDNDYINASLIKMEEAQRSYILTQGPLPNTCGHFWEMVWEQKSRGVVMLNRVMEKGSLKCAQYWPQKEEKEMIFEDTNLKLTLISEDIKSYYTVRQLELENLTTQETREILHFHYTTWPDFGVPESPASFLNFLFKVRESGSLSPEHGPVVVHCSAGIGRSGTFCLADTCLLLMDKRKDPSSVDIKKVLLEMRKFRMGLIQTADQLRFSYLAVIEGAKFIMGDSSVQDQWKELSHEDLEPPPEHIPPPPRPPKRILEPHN
The test can be described thus: Mobility shift assay (MSA) used to determine potency of PTPN1 inhibitors. The class given is biochemical. To be noted: enzyme 0.5 nM, substrate 2 μM. In a few lines:
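Full-length His-tagged human PTPN1 (0.5 nM) was preincubated 10 min at room temperature with compound (12-point, 1:3 dilution) in HEPES pH 7.5 buffer with EGTA, EDTA, Tween 20 and DTT. A 2 μM fluorescent phospho-insulin receptor peptide was then added for 10 min before quench. Mobility-shift % conversion gave % inhibition and IC50.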

Consider `CO[C@@H]1CCc2cc(O)c(N3CC(=O)NS3(=O)=O)c(F)c2C1` (single isomer, unassigned) [Compound 104], for which the results for the IC50 in test [1], in test [2] and in test [3] were 10 to 100 µM, 10 to 100 nM and 10 to 100 nM, respectively.
Turning to `CO[C@H]1CCc2cc(O)c(N3CC(=O)NS3(=O)=O)c(F)c2C1` (single isomer, unassigned) [Compound 109], the IC50 in test [1] was 10 to 100 µM; in test [2], 10 to 100 nM; in test [3], 10 to 100 nM.
As to `CC(C)CCN[C@H]1CCc2cc(O)c(N3CC(=O)NS3(=O)=O)c(F)c2C1` (single isomer, unassigned) [Compound 117], the IC50 was in the range of 1 to 10 µM in test [1], 10 to 100 nM in test [2] and 10 to 100 nM in test [3].
Take `O=C1CN(c2c(O)cc3c(c2F)C[C@@H](NCCC2CC2)CC3)S(=O)(=O)N1` (single isomer, unassigned) [Compound 134]: the IC50 fell in the range of 1 to 10 µM in test [1], 10 to 100 nM in test [2] and 10 to 100 nM in test [3].
`O=C1CN(c2c(O)cc3c(c2F)C[C@@H]([C@@H]2CCNC2)CC3)S(=O)(=O)N1` (single isomer, unassigned) [Compound 136, 5-{(7RS)-1-fluoro-3-hydroxy-7-[(3RS)-pyrrolidin-3-yl]-5,6,7,8-tetrahydronaphthalen-2-yl}-1λ^6,2,5-thiadiazolidine-1,1,3-trione]: the IC50 in test [1] was greater than 100 µM; in test [2], 10 to 100 nM; in test [3] it was 10 to 100 nM.
For the molecule `O=C1CN(c2c(O)cc3c(c2F)C[C@@H]([C@@H]2CCN(S(=O)(=O)C4CC4)C2)CC3)S(=O)(=O)N1` (single isomer, unassigned) [Compound 137, 5-{(7RS)-7-[(3RS)-1-(cyclopropanesulfonyl)pyrrolidin-3-yl]-1-fluoro-3-hydroxy-5,6,7,8-tetrahydronaphthalen-2-yl}-1λ^6,2,5-thiadiazolidine-1,1,3-trione], the IC50 in test [1] was 10 to 100 µM; in test [2], less than 1 nM; in test [3] it was 1 to 10 nM.
For `O=C1CN(c2c(O)cc3c(c2F)C[C@@H]([C@H]2CCN(S(=O)(=O)C4CC4)C2)CC3)S(=O)(=O)N1` (single isomer, unassigned) [Compound 139, 5-{(7RS)-7-[(3SR)-1-(cyclopropanesulfonyl)pyrrolidin-3-yl]-1-fluoro-3-hydroxy-5,6,7,8-tetrahydronaphthalen-2-yl}-1λ^6,2,5-thiadiazolidine-1,1,3-trione], the IC50 in test [1] lay in the range of 10 to 100 µM; in test [2], 1 to 10 nM; in test [3], 10 to 100 nM.
Taken in the same sequence, the figures for `CC(C)CCNC[C@H]1Cc2cc(O)c(N3CC(=O)NS3(=O)=O)c(F)c2C1` (single isomer, unassigned) [Compound 292] were 1 to 10 µM, 10 to 100 nM and 10 to 100 nM.
Turning to `CC(C)(CO)CCN[C@@H]1CCc2cc(O)c(N3CC(=O)NS3(=O)=O)c(F)c2C1` (single isomer, unassigned) [Compound 308], the IC50 in test [1] was less than 1 µM; in test [2], 1 to 10 nM; in test [3], 1 to 10 nM.
Regarding `CC(C)CCNC1CCc2cc(O)c(N3CC(=O)NS3(=O)=O)c(F)c2C1` (stereo not shown) [Compound 102, 5-{1-fluoro-3-hydroxy-7-[(3-methylbutyl)amino]-5,6,7,8-tetrahydronaphthalen-2-yl}-1λ^6,2,5-thiadiazolidine-1,1,3-trione], the half-maximal inhibitory concentration (IC50) was less than 1 µM in test [1], less than 1 nM in test [2] and 1 to 10 nM in test [3].
Take `COCCOC1CCc2cc(O)c(N3CC(=O)NS3(=O)=O)c(F)c2C1` (stereo not shown) [Compound 106, 5-[1-fluoro-3-hydroxy-7-(2-methoxyethoxy)-5,6,7,8-tetrahydronaphthalen-2-yl]-1λ^6,2,5-thiadiazolidine-1,1,3-trione]: the IC50 fell in the range of 10 to 100 µM in test [1], 10 to 100 nM in test [2] and 10 to 100 nM in test [3].
Consider `O=C1CN(c2c(O)cc3c(c2F)CC(OCC2CC2)CC3)S(=O)(=O)N1` (stereo not shown) [Compound 107, 5-[7-(cyclopropylmethoxy)-1-fluoro-3-hydroxy-5,6,7,8-tetrahydronaphthalen-2-yl]-1λ^6,2,5-thiadiazolidine-1,1,3-trione], for which the IC50 in test [1] lay in the range of 10 to 100 µM; in test [2] it was 10 to 100 nM; in test [3], 10 to 100 nM.
For the molecule `O=C1CN(c2c(O)cc3c(c2F)CC(NCCC(F)(F)F)CC3)S(=O)(=O)N1` (stereo not shown) [Compound 116, 5-{1-fluoro-3-hydroxy-7-[(3,3,3-trifluoropropyl)amino]-5,6,7,8-tetrahydronaphthalen-2-yl}-1λ^6,2,5-thiadiazolidine-1,1,3-trione], the IC50 in test [1] lay in the range of 1 to 10 µM; in test [2], 10 to 100 nM; in test [3], 10 to 100 nM.
On to `O=C1CN(c2c(O)cc3c(c2F)CCC(OCCCC(F)F)C3)S(=O)(=O)N1` (stereo not shown) [Compound 312, 5-[6-(4,4-difluorobutoxy)-1-fluoro-3-hydroxy-5,6,7,8-tetrahydronaphthalen-2-yl]-1λ^6,2,5-thiadiazolidine-1,1,3-trione], for which the IC50 in test [2] and in test [3] was 10 to 100 nM in each case.
For the molecule `CC(C)CCNC1CCc2c(cc(O)c(N3CC(=O)NS3(=O)=O)c2F)C1` (stereo not shown) [Compound 313, 5-{1-fluoro-3-hydroxy-6-[(3-methylbutyl)amino]-5,6,7,8-tetrahydronaphthalen-2-yl}-1λ^6,2,5-thiadiazolidine-1,1,3-trione], the results for the IC50 in test [2] and in test [3] were 1 to 10 nM and 10 to 100 nM, respectively.
Taken in the same sequence, the figures for `CC(C)CCOC1CCc2c(cc(O)c(N3CC(=O)NS3(=O)=O)c2F)C1` (stereo not shown) [Compound 314, 5-[1-fluoro-3-hydroxy-6-(3-methylbutoxy)-5,6,7,8-tetrahydronaphthalen-2-yl]-1λ^6,2,5-thiadiazolidine-1,1,3-trione] were 10 to 100 nM and greater than 100 nM.
`CC(C)(O)CCNC1CCc2c(cc(O)c(N3CC(=O)NS3(=O)=O)c2F)C1` (stereo not shown) [Compound 315, 5-{1-fluoro-3-hydroxy-6-[(3-hydroxy-3-methylbutyl)amino]-5,6,7,8-tetrahydronaphthalen-2-yl}-1λ^6,2,5-thiadiazolidine-1,1,3-trione]: the IC50 in test [2] was in the range of 1 to 10 nM; in test [3] it was 10 to 100 nM.
Taken in the same sequence, the figures for `CC(C)(C)OC(=O)NCCOC1CCc2c(cc(O)c(N3CC(=O)NS3(=O)=O)c2F)C1` (stereo not shown) [Compound 316, tert-butyl (2-{[5-fluoro-7-hydroxy-6-(1,1,4-trioxo-1λ^6,2,5-thiadiazolidin-2-yl)-1,2,3,4-tetrahydronaphthalen-2-yl]oxy}ethyl)carbamate] were 10 to 100 nM and greater than 100 nM.
Regarding `COC1CCc2c(cc(O)c(N3CC(=O)NS3(=O)=O)c2F)C1` (stereo not shown) [Compound 317, 5-(1-fluoro-3-hydroxy-6-methoxy-5,6,7,8-tetrahydronaphthalen-2-yl)-1λ^6,2,5-thiadiazolidine-1,1,3-trione], the IC50 in test [2] was 10 to 100 nM; in test [3], greater than 100 nM.
In the same order, the values of `O=C1CN(c2c(O)cc3c(c2F)CCC(NCC2CC2)C3)S(=O)(=O)N1` (stereo not shown) [Compound 318, 5-{6-[(cyclopropylmethyl)amino]-1-fluoro-3-hydroxy-5,6,7,8-tetrahydronaphthalen-2-yl}-1λ^6,2,5-thiadiazolidine-1,1,3-trione] are 1 to 10 nM and 10 to 100 nM.
Taken in the same sequence, the figures for `NCCOC1CCc2c(cc(O)c(N3CC(=O)NS3(=O)=O)c2F)C1` (stereo not shown) [Compound 319, 5-[6-(2-aminoethoxy)-1-fluoro-3-hydroxy-5,6,7,8-tetrahydronaphthalen-2-yl]-1λ^6,2,5-thiadiazolidine-1,1,3-trione] were 10 to 100 nM and greater than 100 nM.
